Reference: BindingDB's records for doi:10.1021/jm960248s (Smithkline Beecham Pharmaceuticals, 1996)

Target: fMet-Leu-Phe receptor (Homo sapiens) (UniProt P21462)
Assay: Inhibitory concentration against fMLP receptor with [3H]- fMLP in receptor binding assay

Sequence of fMet-Leu-Phe receptor (Homo sapiens) (P21462 whole entry, looked up): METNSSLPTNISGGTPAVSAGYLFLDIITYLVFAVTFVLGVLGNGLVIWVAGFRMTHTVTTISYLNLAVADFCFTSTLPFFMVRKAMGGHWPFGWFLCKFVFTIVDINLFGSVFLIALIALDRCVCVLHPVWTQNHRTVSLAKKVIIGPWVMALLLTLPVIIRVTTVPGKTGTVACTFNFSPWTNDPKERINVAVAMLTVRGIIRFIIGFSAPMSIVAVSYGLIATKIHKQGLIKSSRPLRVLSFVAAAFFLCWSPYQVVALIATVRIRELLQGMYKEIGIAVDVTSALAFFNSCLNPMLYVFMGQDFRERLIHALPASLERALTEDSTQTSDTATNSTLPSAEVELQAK

IC50: 3.25 µM
SMILES: O=C(O)/C=C/c1nc(CSc2c(Cl)cccc2Cl)ccc1OCCc1ccccc1 [Ticolubant]
